≈ marks a conversion by molar mass, not a printed value. Read-outs that look alike come from different tables or passages of the source.
Columns and labels:
[1] = test system: E. coli ATCC25992; assay: Broth microdilution MIC (NCCLS); format: cell-based; settings: Escherichia coli
How it was run: (§1)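 MIC = lowest drug concentration with no bacterial growth, read at 650 nm and visually after 24 h at 35° C. Assay run in MHB per NCCLS, inoculum 5×10^5 CFU/mL, compounds serially diluted 2-fold in plate.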

[2] = test system: E. faecalis ATCC 29212; assay: Broth microdilution MIC (NCCLS); format: cell-based; settings: Enterococcus faecalis, ATCC29212
How it was run: (§2)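 In this NCCLS microdilution, growth inhibition was scored after a 24 h, 35° C incubation in MHB. Inocula (5×10^5 CFU/mL final) came from early log-phase cultures, except enterococci, which were used directly from overnight cultures.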

[3] = test system: E. faecalis VanB (Van^R); assay: Broth microdilution MIC (NCCLS); format: cell-based; settings: Enterococcus faecalis
How it was run: as §2

[4] = test system: E. faecium ATCC 35667; assay: Broth microdilution MIC (NCCLS); format: cell-based; settings: Enterococcus faecium, ATCC35667
How it was run: as §2

[5] = test system: P. aeruginosa ATCC 27853; assay: Broth microdilution MIC (NCCLS); format: cell-based; settings: Pseudomonas aeruginosa, ATCC27853
How it was run: as §1

[6] = test system: S. aureus ATCC 13709 (Meth^S); assay: Broth microdilution MIC (NCCLS); format: cell-based; settings: Staphylococcus aureus, ATCC13709, S. aureus ATCC 13709 (Meth^S); read-out: MIC
How it was run: as §2

[7] = test system: S. aureus ATCC 29213; assay: Broth microdilution MIC (NCCLS); format: cell-based; settings: Staphylococcus aureus, ATCC29213; S. aureus ATCC 29213; Mueller-Hinton broth, 24 h at 35° C.; read-out: MIC
How it was run: as §2

[8] = test system: S. aureus ATCC 33593 (Meth^R); assay: Broth microdilution MIC (NCCLS); format: cell-based; settings: Staphylococcus aureus, ATCC33593
How it was run: as §2

[9] = test system: S. aureus PC1 (Meth^S)(lac^+); assay: Broth microdilution MIC (NCCLS); format: cell-based; settings: Staphylococcus aureus
How it was run: as §2

[10] = test system: S. aureus Spain #356 (Meth^R); assay: Broth microdilution MIC (NCCLS); format: cell-based; settings: Staphylococcus aureus, 24 h
How it was run: as §2

[11] = Pharmacokinetic evaluation in rat (clearance); format: in vivo; settings: male, Sprague-Dawley (SD), serum, iv, read-out: Pharmacokinetics Clearance (converted)
Excerpt: Four male SD rats with femoral and jugular vein catheters were obtained from Hilltop Lab Animals, Inc. (Scottdale, Pa.). The catheters in the femoral and jugular veins were filled with 10 units/mL heparin in saline, and kept patent by changing the solution daily. The animals were quarantined for a minimum of two days prior to use, and were maintained on a 12-h light:dark schedule with constant access to food and water before and during the study. On the day of dosing, the animals weighed […] (mean±s.d.).
A 4 mg/mL (active component) dosing solution of mesylate salt of compound 17 was prepared in sterile saline for injection. […] Blood samples (0.2 mL aliquots) were collected from the jugular vein catheter 5, 15, 20, 25, 30, and 45 min, and 1, 2, 3, and 4 h after the start of the infusion. The blood was centrifuged for 10 min and the serum was stored ≦−70° C. until analysis by HPLC.
The plasma concentrations from individual animals were fit to a two-compartment model with zero order input and first-order elimination from the central compartment using weighted nonlinear regression (WinNonlin, Pharsight, Palo Alto, Calif.). Pharmacokinetic parameters were calculated from the fitted parameters using standard equations (Gibaldi M, Perrier D. 1982. Pharmacokinetics, 2nd ed., Marcel Dekker Inc., New York.).

[12] = test system: S. aureus ATCC 13709 (Smith diffuse); assay: Murine lethal bacteremic peritonitis (septicemia) efficacy; format: in vivo, mice; settings: for responders at 0.312 mg/kg: dose 0.312 mg/kg s.c. at 0 and 2 h post-challenge; for responders at 0.625 mg/kg: dose 0.625 mg/kg s.c. at 0 and 2 h post-challenge; for responders at 1.25 mg/kg: dose 1.25 mg/kg s.c. at 0 and 2 h post-challenge; for responders at 2.5 mg/kg: dose 2.5 mg/kg s.c. at 0 and 2 h post-challenge; for ED50: ATCC13709, mice, S. aureus ATCC 13709 i.p., s.c. at 0 and 2 h post-challenge, probit method; for responders at 0.156 mg/kg: dose 0.156 mg/kg s.c. at 0 and 2 h post-challenge
How it was run: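 Male Swiss-Webster mice, 10/group, challenged i.p. with 2.98×10^7 cfu log-phase bacteria in 7% hog-gastric mucin. Serial two-fold doses given s.c. at 0 and 2 h post-challenge; ED50 by probit from survival.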

[13] = Staphylococcus aureus, ATCC13709, sc, read-out: Efficacy in murine septicemia % survival
[14] = dose 5 mg/kg s.c. at 0 and 2 h post-challenge

Row | SMILES | MIC [1] [µg/mL] | MIC [2] [µg/mL] | MIC [3] [µg/mL] | MIC [4] [µg/mL] | MIC [5] [µg/mL] | MIC [6] [µg/mL] | MIC [7] [µg/mL] | MIC [8] [µg/mL] | MIC [9] [µg/mL] | MIC [10] [µg/mL] | clearance ([11]; dose 20.0 mg/kg) [mL/min/kg] | responders at 0.312 mg/kg [12, 13] [%] | responders at 0.625 mg/kg [12, 13] [%] | responders at 1.25 mg/kg [12, 13] [%] | responders at 2.5 mg/kg [12, 13] [%] | ED50 ([12]; Staphylococcus aureus) [mg/kg] | Efficacy in murine septicemia % survival [12, 14] | responders at 0.156 mg/kg [12, 13] [%] | also measured
1 | N=C(N)NCCSCc1cnccc1SC1=C(C(=O)O)N2C(=O)[C@@H](NC(=O)/C(=N\O)c3nsc(N)n3)[C@H]2SC1 [Cmpd 25, (7R)-7-[(Z)-2-(5-amino-1,2,4-thiadiazol-3-yl)-2-(hydroxyimino)acetamido]-3-[3-(2-guanidinoethylthiomethyl)pyrid-4-ylthio]-3-cephem-4-carboxylic acid] | 1 (≈ 1.64 µM) | 0.13 (≈ 0.213 µM) | 0.25 (≈ 0.409 µM) | 0.5 (≈ 0.819 µM) | > 32 | 0.13 (≈ 0.213 µM) | 0.25 (≈ 0.409 µM) | 1 (≈ 1.64 µM) | 0.13 (≈ 0.213 µM) | 1 (≈ 1.64 µM) | 18.7 | 80 | 100 | 100 | 100 | < 0.31 | 5/100% |  | 
2 | NCCSCc1cnccc1SC1=C(C(=O)O)N2C(=O)[C@@H](NC(=O)/C(=N\O)c3nsc(N)n3)[C@H]2SC1 [Cmpd 18, (7R)-7-[(Z)-2-(5-amino-1,2,4-thiadiazol-3-yl)-2-(hydroxyimino)acetamido]-3-[3-(2-aminoethylthiomethyl)pyrid-4-ylthio]-3-cephem-4-carboxylic acid] | 0.5 (≈ 0.879 µM) | 0.13 (≈ 0.229 µM) | 0.25 (≈ 0.44 µM) | 0.5 (≈ 0.879 µM) | > 32 | 0.13 (≈ 0.229 µM) | 0.13 (≈ 0.229 µM) | 1 (≈ 1.76 µM) | 0.13 (≈ 0.229 µM) | 1 (≈ 1.76 µM) | 36.2 | 30 | 60 | 100 | 100 | 0.46 | 5/100% |  | 
3 | NCCSCc1cnccc1SC1=C(C(=O)O)N2C(=O)[C@@H](NC(=O)/C(=N\O)c3nc(N)sc3Cl)[C@H]2SC1 [Cmpd 20, (7R)-7-[(Z)-2-(2-amino-5-chlorothiazol-4-yl)-2-(hydroxyimino)acetamido]-3-[3-(2-aminoethylthiomethyl)pyrid-4-ylthio]-3-cephem-4-carboxylic acid] | 8 (≈ 13.3 µM) | 0.06 (≈ 0.0996 µM) | 0.13 (≈ 0.216 µM) | 0.5 (≈ 0.83 µM) | > 32 | 0.13 (≈ 0.216 µM) | 0.25 (≈ 0.415 µM) | 1 (≈ 1.66 µM) | 0.25 (≈ 0.415 µM) | 1 (≈ 1.66 µM) | 26.5 | 10 | 30 | 58 | 80 | 1 |  | 20 | 
4 | NCCSCc1cnccc1SC1=C(C(=O)O)N2C(=O)C(NC(=O)/C(=N\O)c3csc(N)n3)C2SC1 (stereo not shown) [Cmpd 19] | 4 (≈ 7.05 µM) | 0.5 (≈ 0.881 µM) | 1 (≈ 1.76 µM) | 2 (≈ 3.52 µM) | > 32 | 0.5 (≈ 0.881 µM) | 0.5 (≈ 0.881 µM) | 2 (≈ 3.52 µM) | 0.5 (≈ 0.881 µM) | 2 (≈ 3.52 µM) |  | 20 | 80 | 100 |  |  |  | 20 | clearance ([11]; dose 42.5 mg/kg): 20.8 mL/min/kg; responders at 0.078 mg/kg ([12]; Staphylococcus aureus, ATCC13709, sc, dose 0.078 mg/kg s.c. at 0 and 2 h post-challenge, read-out: Efficacy in murine septicemia % survival): 20%
5 | NCCSCc1cnccc1SC1=C(C(=O)O)N2C(=O)[C@@H](NC(=O)/C(=N\O)c3cccc(N)n3)[C@H]2SC1 [Cmpd 24, (7R)-7-[(Z)-2-(2-aminopyrid-6-yl)-2-(hydroxyimino)acetamido]-3-[3-(2-aminoethylthiomethyl)pyrid-4-ylthio]-3-cephem-4-carboxylic acid] | 16 (≈ 28.5 µM) | 0.25 (≈ 0.445 µM) | 0.5 (≈ 0.89 µM) | 1 (≈ 1.78 µM) | > 32 | 0.25 (≈ 0.445 µM) | 0.25 (≈ 0.445 µM) | 2 (≈ 3.56 µM) | 0.25 (≈ 0.445 µM) | 2 (≈ 3.56 µM) | 47.5 |  | 30 | 90 | 100 | 0.76 | 5/100% |  | Efficacy in murine septicemia % survival ([12]; dose 10 mg/kg s.c. at 0 and 2 h post-challenge): 10/100%
6 | NCCSCc1ncsc1SC1=C(C(=O)O)N2C(=O)[C@@H](NC(=O)/C(=N\O)c3cccc(N)n3)[C@H]2SC1 [Cmpd 23, (7R)-7-[(Z)-2-(2-aminopyrid-6-yl)-2-(hydroxyimino)acetamido]-3-[4-(2-aminoethylthiomethyl)-1,3-thiazol-5-ylthio]-3-cephem-4-carboxylic acid] | 16 (≈ 28.2 µM) | 0.25 (≈ 0.44 µM) | 0.5 (≈ 0.881 µM) | 2 (≈ 3.52 µM) | > 32 | 0.06 (≈ 0.106 µM) | 0.13 (≈ 0.229 µM) | 1 (≈ 1.76 µM) | 0.13 (≈ 0.229 µM) | 2 (≈ 3.52 µM) | 13.5 | 40 |  | 100 | 100 | 0.39 | 5/100% |  | 

From patent US6723716B1, “7-acylamino-3-heteroarylthio-3-cephem carboxylic acid antibiotics and prodrugs thereof” (Essential Therapeutics, Inc., priority 1999, dated 2004)
